Values belong to the molecule of their own block, whether it stands above or below them.
Tests used:
[1] = system: antibody raised against Tyr-(CGRP amino acids 25-37)-amide; assay: Radioimmunoassay cross-reactivity with 125I-Tyr-(CGRP amino acids 25-37)-amide tracer; assay type: binding, rabbit; conditions: 1:12500 dilution of serum, 1800 cpm tracer, 400 μl assay
Procedure: Cells from a 500 ml culture were harvested and lysed in a lysozyme/sodium deoxycholate mixture (5 ml), then treated with DNase for 30 mins. at 5° C. (Emtage J. S. et al PNAS (1983), 80, p 3671-3675). […] Radioimmunoassay was carried out in 0.05M phosphate buffer pH 7.4 in a final volume of 400 ul (see Girgis, S. I. et al J. Endocrinol 78, 372-382). Antiserum was raised in rabbits, using the known techniques, against Tyr-(CGRP amino acids 25-37)-amide and conjugated to chick ovalbumin (Reichlin, M.1980, Meth.Enzymol 70 159-165) and against ^125 I Tyr-(CGRP amino acids 25-37)-amide tracer.
The tracer was iodinated using the Chloramine T method of Hunter and Greenwood.

[2] = system: guinea-pig right atrial preparation; assay: Rate and force of contraction of isolated guinea-pig right atrium; assay type: cell-based
Procedure: Male Dunkin Hartley guinea-pigs (280-400 g) were killed by cervical dislocation and exsanguinated. The heart was removed, the right atrium dissected out and mounted under 0.5 g tension in Krebs solution (mM): NaCl 118, KCl 4.7, CaCl2 2.5, KH2 PO4 1.18, NaHCO3 25, MgSO4 1.18 and glucose 11.1, at 34° C. bubbled with 95:5 02 :CO2. Atrial force and rate were measured isometrically by a Grass FT.03 transducer and recorded on a Grass polygraph. Single doses of either human or rat CGRP were given in a random order.

[3] = system: pentobarbitone anaesthetised rat; assay: Cardiovascular actions (mean arterial pressure, heart rate) after i.v. administration in anaesthetised rats; assay type: in vivo
Procedure: Groups of 4 to 6 male Sprague-Dawley rats (285-315 g) were anaesthetised with sodium pentobarbitone (60 mg Kg^-1 i.p.). The trachea, left carotid artery and left jugular vein were cannulated. Blood pressure was recorded from the carotid artery on a Grass polygraph via a Statham P23 ID pressure transducer and mean arterial pressure derived from the trace. Heart rate was measured by a tachograph (Grass model 7P4) triggered by the blood pressure signal. […] Purified rat CGRP was from the same source. All synthetic preparations were subject to mass spectrometry (M-Scan Ltd.) to confirm structure and purity before use. […] All compounds were administered intravenously except for mepyramine (s.c.). […] The peak fall in mean arterial pressure (MAP) and heart rate (HR) after 2 min was measured.
The mechanism of action of PDA-4 was not examined.

[4] = cumulative doses at 2 min intervals, anaesthetised rat

cross-reaction with the antibody (displacement of tracer) [1]: does not cross-react
Molecule: CC(C)C[C@H](NC(=O)[C@H](CCCCN)NC(=O)CNC(=O)[C@H](CC(C)C)NC(=O)[C@@H](NC(=O)[C@@H]1CSSC[C@H](N)C(=O)N[C@@H](CO)C(=O)N[C@@H](CC(N)=O)C(=O)N[C@@H](CC(C)C)C(=O)N[C@@H](CO)C(=O)N[C@@H]([C@@H](C)O)C(=O)N1)C(C)C)C(=O)N[C@@H](CO)C(=O)N[C@@H](CCC(N)=O)C(=O)N[C@@H](CCC(=O)O)C(=O)N[C@@H](CC(C)C)C(=O)N[C@@H](Cc1c[nH]cn1)C(=O)N[C@@H](CCCCN)C(=O)N[C@@H](CC(C)C)C(=O)N[C@@H](CCC(N)=O)C(=O)N[C@H](C(=O)N[C@@H](Cc1ccc(O)cc1)C(=O)N1CCC[C@H]1C(=O)N[C@@H](CCCNC(=N)N)C(=O)N[C@H](C(=O)N[C@@H](CC(N)=O)C(=O)N[C@H](C(=O)NCC(=O)N[C@@H](CO)C(=O)NCC(=O)N[C@H](C(=O)N1CCC[C@H]1C(N)=O)[C@@H](C)O)[C@@H](C)O)[C@@H](C)O)[C@@H](C)O [salmon calcitonin]

cross-reaction with the antibody (displacement of tracer) [1]: does not cross-react
Molecule: Tyr-CGRP (amino acids 1-8): tyrosinated fragment of human CGRP, amino acids 1 to 8 (ACDTATCV; Calcitonin gene-related peptide 1 N-terminal tyrosine added; UniProt P06881 83-90, looked up, fragment)

cross-reaction with the antibody (displacement of tracer) [1]: does not cross-react
Molecule: human calcitonin: human calcitonin, tested for cross-reaction in the radioimmunoassay

cross-reaction with the antibody (displacement of tracer) [1]: does not cross-react
Molecule: katacalcin: carboxy terminal peptide designated PDN-21 (Katacalcin) of the human calcitonin polyprotein (DMSSDLERDHRPHVSMPQNAN; Katacalcin; UniProt P01258 121-141, looked up)

cross-reaction with the antibody (displacement of tracer) [1]: recognises antigenic determinants
Molecule: rat CGRP: synthetic rat CGRP preparation from Peninsula Laboratories
potency relative to human CGRP at increasing rate (times more potent) ([2]; isolated right atrium): approximately 10 times | potency relative to human CGRP in evoking increases in force ([2]; isolated right atrium): equipotent | increase in rate or force in presence of propranolol ([2]; propranolol): Neither the increase in rate or force produced by rat CGRP was blocked | fall in mean arterial pressure (MAP) [3, 4]: dose-dependent fall in MAP | increase in heart rate (HR) [3, 4]: increase in HR | dose representing a 50% decrease in blood pressure ([3]; pentobarbitone anaesthetised rat): 0.23 nmol/kg
